The text below walks through data of US6828315B1, “1-Amino triazoloc4,3-a! quinazoline-5-ones and/or -5-thiones inhibiting phosphodiesterase IV” (Warner-Lambert LLC, priority 1999, dated 2004).

Data set [1] concerns the target type 4 phosphodiesterases (PDE4). Nature of the data set: Inhibition of the phosphodiesterase (PDE4), enzymatic preparation from line U937. In kind it is biochemical. Conditions: PDE4 from cytosolic preparation of human cell line U937. The protocol:
The capacity of the formula (I) compounds of the invention to inhibit the cyclic nucleotide phosphodiesterases is evaluated by their Cl50 measurement (necessary concentration to inhibit 50% of enzymatic activity).
The type 4 phosphodiesterases are obtained from a cytosolic preparation extracted from the human origin cellular line U937 according to a method adapted from T. J. Torphy and al., 1992, J.Pharm.Exp. Ther. 263: 1195-1205
The other classes of phosphodiesterases are obtained after partial purification FPLC on Mono Q column. (anion exchange column) according to a method adapted from Lavan B. E., Lakey T., Houslay M. D. Biochemical Pharmacology, 1989, 38(22), 4123-4136., and from Silver P. J and al., 1988, Eur.J. Pharmacol. 150: 85-94, either, from human origin cellular lines for PDE 1 (monocytar line TPH1) and PDE5 (line MCF7 issued from an adenocarcinoma), or from dog aorta for PDE 3, or for the human PDE3A, from gene cloning in insect cells SF21 in baculovirus, according to a method adapted from Luckow, V. A. and al., 1991 in Recombinant DNA Technology&Applications.,eds. Prokop, Bajpai,R. K.&Ho,C. S., pp97-152. The enzymatic activity measurement of the different PDE classes, and in particular the PDE 4, is performed according to a method adapted from W. J. Thompson and al. 1979, Advances in Cyclic Nucleotide Research, Vol. 10: 69-92, ed. G. Brooker and al. Raven Press, NY.
For the Cl50 determination, the enzymatic activity is measured in the presence of inhibitor within concentration margins of 0.1 to 100 μM.
The following table illustrates the PDE4 inhibitory activity from enzymatic preparation obtained from the line U937.

On to `O=c1c2cc(Br)ccc2n2c(N3CCCC3)nnc2n1C/C=C/c1ccc(Cl)cc1` [Compound 59, 7-Bromo-4-[(E)-3-(4-chloro-phenyl)-allyl]-1-pyrrolidin-1-yl-4H-[1,2,4)triazolo[4,3-a]quinazolin-5-one], for which the melting point was found to be 187 °C. The same compound displayed an IC50 in data set [1] of 90 nM.

For the compound `CNc1ccc2c(c1)c(=O)n(Cc1ccc(C#N)cc1)c1nnc(N3CCCC3)n21` [Compound 231, 4-(7-Methylamino-5-oxo-1-pyrrolidin-1-yl-5H-[1,2,4]triazolo[4,3-a]quinazolin-4-ylmethyl)-benzonitrile], the melting point worked out at 270 °C. This compound returned an IC50 in data set [1] of 0.27 nM.

Compound `Cc1ccc(Cn2c(=O)c3cc(Br)ccc3n3c(N4CCCC4)nnc23)cc1` [Compound 42, 7-Bromo-4-(4-methyl-benzyl)-1-pyrrolidin-1-yl-4H-[1,2,4]triazolo[4,3-a]quinazolin-5-one] gave a melting point of 215 °C. For the same compound, the concentration for half-maximal inhibition (IC50) in data set [1] was determined as 24 nM.

On to `Cc1ccc2c(c1)c(=O)n(CC=Cc1ccccc1)c1nnc(N3CCCCCC3)n21` [Compound 92, 1-Azepan-1-yl-7-methyl-4-(3-phenyl-allyl)-4H-[1,2,4]triazolo[4,3-a]quinazolin-5-one], for which the melting point is 195 °C. In addition, in data set [1], the midpoint of inhibition, the IC50, lay at 30 nM.

`Nc1ccc2c(c1)c(=O)n(C/C=C/c1cccnc1)c1nnc(N3CCCC3)n21` [Compound 227, 7-Amino-4-((E)-3-pyridin-3-yl-allyl)-1-pyrrolidin-1-yl-4H-[1,2,4]triazolo[4,3-a]quinazolin-5-one] displayed a melting point of 201 °C. This compound also came in with an IC50 in data set [1] of 28 nM.

`Cc1ccc2c(c1)c(=O)n(Cc1ccc(CC(=O)O)cc1)c1nnc(N3CCCC3)n21` [Compound 96, [4-(7-Methyl-5-oxo-1-pyrrolidin-1-yl-5H-[1,2,4]triazolo[4,3-a]quinazolin-4-ylmethyl)-phenyl]-acetic acid] returned a melting point of 262 °C. Moreover, in data set [1], the midpoint of inhibition, the IC50, lay at 58 nM.

For the compound `O=c1c2cc(I)ccc2n2c(N3CCCC3)nnc2n1Cc1ccccc1` [Compound 189, 4-Benzyl-7-iodo-1-pyrrolidin-1-yl-4H-[1,2,4]triazolo[4,3-a]quinazolin-5-one], the melting point came to 184 °C. Also, the 50% inhibitory concentration (IC50) in data set [1] amounted to 78 nM.

For `Cc1ccc2c(c1)c(=S)n(CC=Cc1cccnc1)c1nnc(N(C)C)n21` [Compound 246, 1-Dimethylamino-7-methyl-4-(3-pyridin-3-yl-allyl)-4H-[1,2,4]triazolo[4,3-a]quinazoline-5-thione], the melting point came out at 133 °C. In data set [1], this compound showed an IC50 of 41 nM.

`CCNc1ccc2c(c1)c(=O)n(Cc1ccccc1)c1nnc(N3CCCC3)n21` [Compound 233, 4-Benzyl-7-ethylamino-1-pyrrolidin-1-yl-4H-[1,2,4]triazolo[4,3-a]quinazolin-5-one] came in with a melting point of 225 °C. This compound yielded an IC50 in data set [1] of 180 nM.

Consider `COC(=O)C(c1ccccc1)n1nc(N(C)C)n2c3ccc(Br)cc3c(=O)nc12` (centres unmarked) [Compound 156, (7-Bromo-1-dimethylamino-5-oxo-5H-[1,2,4]triazolo[4,3-a]quinazolin-3-yl)-phenyl-acetic acid methyl ester], for which the melting point came to 83 °C. In data set [1], this compound yielded an IC50 of 90 nM.

Compound `Cc1ccc(Cn2c(=O)c3cc(Br)ccc3n3c(N(C)C)nnc23)cc1` [Compound 78, 7-Bromo-1-dimethylamino-4-(4-methyl-benzyl)-4H-[1,2,4]triazolo[4,3-a]quinazolin-5-one] came in with a melting point of 223 °C. Further, the IC50 in data set [1] is 38 nM.

In turn, `COc1ccc(C=CCn2c(=O)c3cc(Br)ccc3n3c(N4CCCC4)nnc23)cc1` [Compound 60, 7-Bromo-4-[3-(4-methoxy-phenyl)-allyl]-1-pyrrolidin-1-yl-4H-[1,2,4]triazolo[4,3-a]quinazolin-5-one] gave a melting point of 171 °C. The compound further returned an IC50 in data set [1] of 50 nM.

Regarding `N#Cc1ccc(Cn2c(=O)c3cc(Br)ccc3n3c(N4CCCCCC4)nnc23)cc1` [Compound 34, 4-(1-Azepan-1-yl-7-bromo-5-oxo-5H-[1,2,4]triazolo[4,3-a]quinazolin-4-ylmethyl)-benzonitrile], the melting point came to 190 °C. The IC50 in data set [1] turned out to be 56 nM.

`CNc1ccc2c(c1)c(=O)n(Cc1ccccc1)c1nnc(N3CCCC3)n21` [Compound 230, 4-Benzyl-7-methylamino-1-pyrrolidin-1-yl-4H-[1,2,4]triazolo[4,3-a]quinazolin-5-one] registered a melting point of 171 °C. In addition, half-maximal inhibition in data set [1] (IC50) required 2 nM.

The compound `CN(C)C(=O)Cc1ccc(Cn2c(=O)c3cc(Br)ccc3n3c(N4CCCC4)nnc23)cc1` [Compound 242, 2-[4-(7-Bromo-5-oxo-1-pyrrolidin-1-yl-5H-[1,2,4]triazolo[4,3-a]quinazolin-4-ylmethyl)-phenyl]-N,N-dimethyl-acetamide] yielded a melting point of 202 °C. The half-maximal inhibitory concentration (IC50) in data set [1] turned out to be 11 nM.

For `O=c1c2cc(Cl)ccc2n2c(N3CCCCCC3)nnc2n1Cc1cccnc1` [Compound 22, 1-(azepan-1-yl)-7-chloro-4-(3-pyridylmethyl)-4H-[1,2,4]triazolo[4,3-a]quinazolin-5-one], the melting point was found to be 155 °C. This compound gave an IC50 in data set [1] of 410 nM.

`O=c1c2cc(Br)ccc2n2c(N3CCCCCC3)nnc2n1CC=Cc1ccncc1` [Compound 41, 1-Azepan-1-yl-7-bromo-4-(3-pyridin-4-yl-allyl)-4H-[1,2,4]triazolo[4,3-a]quinazolin-5-one] returned a melting point of 216 °C. The same compound gave a half-maximal inhibitory concentration (IC50) in data set [1] of 18 nM.

On to `O=c1c2cc(Br)ccc2n2c(N3CCCC3)nnc2n1CC=Cc1ccccc1` [Compound 57, 1-(pyrrolidin-1-yl)-7-bromo-4-(3-phenylallyl)-4H-[1,2,4]triazolo[4,3-a]quinazolin-5-one], for which the melting point was 152 to 155 °C. Inhibition in data set [1] was half-maximal at 14 nM (IC50).

As for `O=C(Cc1ccc(Cn2c(=O)c3cc(Br)ccc3n3c(N4CCCC4)nnc23)cc1)NO` [Compound 243, 2-[4-(7-Bromo-5-oxo-1-pyrrolidin-1-yl-5H-[1,2,4]triazolo[4,3-a]quinazolin-4-ylmethyl)-phenyl]-N-hydroxy-acetamide], the melting point worked out at 229 °C. It took 28 nM to reach half-maximal inhibition in data set [1] (IC50).

The compound `CC(=O)Oc1ccc(Cn2c(=O)c3cc(Br)ccc3n3c(N4CCCC4)nnc23)cc1` [Compound 50, Acetic acid 4-(7-bromo-5-oxo-1-pyrrolidin-1-yl-5H-[1,2,4]triazolo[4,3-a]quinazolin-4-ylmethyl)-phenyl ester] came in with a melting point of 195 °C. Besides, half-maximal inhibition in data set [1] (IC50) was put at 35 nM.

With `COc1ccc(Cn2c(=O)c3cc(Br)ccc3n3c(N4CCCCC4)nnc23)cc1OC` [Compound 75, 7-Bromo-4-(3,4-dimethoxy-benzyl)-1-piperidin-1-yl-4H-[1,2,4]triazolo[4,3-a]quinazolin-5-one], the melting point amounted to 178 °C. In data set [1], this compound yielded a concentration for half-maximal inhibition (IC50) of 78 nM.

As to `Cc1ccc2c(c1)c(=O)n(Cc1ccccc1)c1nnc(N3CCCCCC3)n21` [Compound 190, 1-Azepan-1-yl-4-benzyl-7-methyl-4H-[1,2,4]triazolo[4,3-a]quinazolin-5-one], the melting point is 183 °C. The same compound yielded an IC50 in data set [1] of 190 nM.

Compound `CN(C)c1nnc2n(CC#Cc3ccccc3)c(=O)c3cc(Br)ccc3n12` [Compound 89, 7-Bromo-1-dimethylamino-4-(3-phenyl-prop-2-ynyl)-4H-[1,2,4]triazolo[4,3-a]quinazolin-5-one] came in with a melting point of 159 °C. The concentration for half-maximal inhibition (IC50) in data set [1] turned out to be 27 nM.

With `O=c1c2cc(Br)ccc2n2c(N3CCCCCC3)nnc2n1C/C=C/c1cccnc1` [Compound 40, 1-Azepan-1-yl-7-bromo-4-((E)-3-pyridin-3-yl-allyl)-4H-[1,2,4]triazolo[4,3-a]quinazolin-5-one], the melting point came out at 185 °C. In data set [1], this compound yielded an IC50 of 14 nM.

As for `O=c1c2cc(Br)ccc2n2c(N3CCCC3)nnc2n1Cc1ccc(O)cc1` [Compound 51, 7-Bromo-4-(4-hydroxy-benzyl)-1-pyrrolidin-1-yl-4H-[1,2,4]triazolo[4,3-a]quinazolin-5-one], the melting point worked out at 288 °C. In data set [1], this compound registered a 50% inhibitory concentration (IC50) of 27 nM.

Compound `COC(=O)c1ccc(Cn2c(=O)c3cc(Br)ccc3n3c(N4CCCC4)nnc23)cc1` [Compound 47, 4-(7-Bromo-5-oxo-1-pyrrolidin-1-yl-5H-[1,2,4]triazolo[4,3-a]quinazolin-4-ylmethyl)-benzoic acid methyl ester] yielded a melting point of 205 °C. Moreover, the IC50 in data set [1] was determined as 50 nM.

Consider `COc1ccc(Cn2c(=O)c3cc(Cl)ccc3n3c(N4CCCCCC4)nnc23)cc1OC` [Compound 20, 1-(azepan-1-yl)-7-chloro-4-(3,4-dimethoxybenzyl)-4H-[1,2,4]triazolo[4,3-a]quinazolin-5-one], for which the melting point was found to be 172 °C. Besides, in data set [1], 40 nM corresponded to half-maximal inhibition (IC50).

Compound `O=c1c2cc(Br)ccc2n2c(N3CCCC3)nnc2n1C/C=C/c1ccncc1` [Compound 62, 7-Bromo-4-((E)-3-pyridin-4-yl-allyl)-1-pyrrolidin-1-yl-4H-[1,2,4]triazolo[4,3-a]quinazolin-5-one] registered a melting point of 167 °C. For the same compound, the midpoint of inhibition in data set [1], the IC50, lay at 53 nM.
